We go through 6 molecules from article PMC10458444 (Viruses, 2023).

Data set [1] can be described thus: Cytotoxicity assay (CCK-8). The conditions noted are these: human, HEK293T-hACE2 cells.
The next data set deals with SARS-CoV PsV. Put plainly: microbe, parasite or virus in culture. The format is cell-based. The conditions noted are these: Severe acute respiratory syndrome coronavirus, 48 h, read-out: IC50, inhibition of SARS-CoV PsV infection.
A further data set relates to SARS-CoV-2 (D614) PsV. Put plainly: microbe, parasite or virus in culture. The conditions noted are these: for IC50: Severe acute respiratory syndrome coronavirus 2, 48 h, read-out: IC50, inhibition of SARS-CoV-2 (D614) PsV infection. It counts as cell-based.
The next data set relates to MERS-CoV PsV. Put plainly: microbe, parasite or virus in culture. It counts as cell-based. The conditions noted are these: Middle East respiratory syndrome-related coronavirus, 48 h, read-out: IC50, inhibition of MERS-CoV PsV infection.
The next data set has as its target SARS-CoV-2 spike protein (Severe acute respiratory syndrome coronavirus 2, UniProt P0DTC2). The format is cell-based. The conditions noted are these: co-incubated with PsV 1 h, HEK293T-hACE2 cells 12 h, Western blotting. On the technique in general: A western blot detects proteins with antibodies after separation by electrophoresis.
Data set [2] concerns SARS-CoV-2 Omicron BA.4 PsV. It counts as cell-based.
For the next data set, the system named is SARS-CoV-2 PsV (D614). As to the kind of experiment: Time-of-addition assay. It counts as cell-based. To be noted: compound added 8 h after the addition of SARS-CoV-2 PsV.
The test system of data set [3] is SARS-CoV-2 spike-pseudovirus (D614). On the set-up: species or system K18-hACE2 transgenic mice. The conditions noted are these: mouse, in vivo.

Where a name gives a salt, the structure may show the parent alone.

One may read the CC50 as the concentration that lowers cell viability or growth by half. A low value points to harm at low concentration. One may read the IC50 as the point on the concentration scale where inhibition reaches its midpoint. The molecule `CCCCCCCCCC(=O)OCCN1CCN(CCCN2c3ccccc3Sc3ccc(C(F)(F)F)cc32)CC1` [Fluphenazine decanoate, fluphenazine decanoate] had a CC50 at 48 h in data set [1] of 61.6 ± 28.8 µM. Moreover, the values for the IC50 in the data set on SARS-CoV PsV, with SARS-CoV-2 (D614) PsV and in the data set with MERS-CoV PsV were 3960 nM, 3900 ± 1090 nM and 2640 nM, respectively. Moreover, in the data set on SARS-CoV-2 (D614) PsV, the “SI, selectivity index = CC50/IC50” value worked out at 15.775.
teicoplanin: the “effect on cleavage of S protein in cells (full-length S protein level)” value on SARS-CoV-2 spike protein is reported as “prevented the cleavage of S protein”.
Regarding `CC(CN(C)C)CN1c2ccccc2Sc2ccccc21` (stereo not drawn) [Alimemazine hemitartrate, alimemazine hemitartrate], the CC50 at 48 h in data set [1] was determined as 53.4 ± 10.9 µM. The IC50 was found to be 356 nM in the data set with SARS-CoV PsV, 477 ± 124 nM in the data set on SARS-CoV-2 (D614) PsV and 1220 nM in the data set on MERS-CoV PsV. Besides, the “SI, selectivity index = CC50/IC50” value with SARS-CoV-2 (D614) PsV was 111.929.
Consider `OCCN1CCN(CCCN2c3ccccc3Sc3ccc(Cl)cc32)CC1` [Perphenazine, perphenazine], for which the midpoint of cytotoxicity in data set [1], the CC50 at 48 h, lay at 18.1 ± 1.45 µM. The IC50 in the data set with SARS-CoV PsV was determined as 1160 nM; in the data set on SARS-CoV-2 (D614) PsV, 831 ± 120 nM; in the data set on MERS-CoV PsV, 1280 nM. Moreover, the “SI, selectivity index = CC50/IC50” value with SARS-CoV-2 (D614) PsV turned out to be 21.805. For the same molecule, in data set [2], the “inhibitory activity in primary screening against Omicron (BA.4) PsV” value is “significant inhibitory activities”.
For the molecule `CC(=O)c1ccc2c(c1)N(CCCN(C)C)c1ccccc1S2` [Acepromazine maleate, acepromazine maleate], the CC50 at 48 h in data set [1] worked out at 93.3 ± 11.5 µM. Besides, the results for the IC50 with SARS-CoV PsV, in the data set with SARS-CoV-2 (D614) PsV and in the data set with MERS-CoV PsV were 1390 nM, 1820 ± 230 nM and 1580 nM, respectively. Further, the “SI, selectivity index = CC50/IC50” value with SARS-CoV-2 (D614) PsV amounted to 51.179. Moreover, the “inhibitory activity in primary screening against Omicron (BA.4) PsV” value in data set [2] is “significant inhibitory activities”.
In data set [1], `CN1CCN(CCCN2c3ccccc3Sc3ccc(Cl)cc32)CC1` [Prochlorperazine maleate, prochlorperazine maleate] registered a CC50 at 48 h of 85.2 ± 13.9 µM. Also, the “inhibitory activity, time of addition” value with SARS-CoV-2 PsV (D614) was “about 20%”. For the same molecule, in data set [3], the “infection, luciferase gene expression in lung tissues (RT-qPCR)” value is “significantly inhibited”; the “viral load, HIV-1 Gag p55 and p24 protein levels in lung” value is listed as “significant reduction in the viral load”.
